Measured values: ChEMBL document CHEMBL1152215, “6-[2-(4-Aryl-1-piperazinyl)ethyl]-2H-1,4-benzoxazin-3(4H)-ones: dual-acting 5-HT1 receptor antagonists and serotonin reuptake inhibitors” (Bioorg Med Chem Lett, 2008)

Key:
[1] = molecular target: T1, 5-hydroxytryptamine receptor 1D (Homo sapiens, UniProt P28221); assay: Intrinsic activity at human 5HT1D receptor expressed in CHO cells by [S35]GTPgammaS binding assay relative to serotonin; type: functional, cell-based
[2] = molecular target: T2, 5-hydroxytryptamine receptor 1B (Homo sapiens, UniProt P28222); assay: Displacement of [3H]5HT from human 5HT1B receptor expressed in CHO cells; type: cell-based
[3] = molecular target: T3, 5-hydroxytryptamine receptor 1A (Homo sapiens, UniProt P08908); assay: Displacement of [3H]WAY-100635 from human 5HT1A receptor expressed in CHO cells; type: cell-based
T3 sequence (P08908 whole entry): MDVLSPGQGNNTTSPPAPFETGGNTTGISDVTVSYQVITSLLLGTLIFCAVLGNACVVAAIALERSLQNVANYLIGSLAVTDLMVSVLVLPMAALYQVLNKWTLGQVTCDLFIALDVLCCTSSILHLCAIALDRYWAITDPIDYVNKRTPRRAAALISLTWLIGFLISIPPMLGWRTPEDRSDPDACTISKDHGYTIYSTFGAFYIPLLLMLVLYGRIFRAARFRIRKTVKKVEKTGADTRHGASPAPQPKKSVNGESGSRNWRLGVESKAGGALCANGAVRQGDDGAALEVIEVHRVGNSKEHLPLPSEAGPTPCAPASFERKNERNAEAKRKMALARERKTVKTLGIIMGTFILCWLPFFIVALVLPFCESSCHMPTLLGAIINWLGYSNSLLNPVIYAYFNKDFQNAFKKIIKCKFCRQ

[4] = molecular target: T2, 5-hydroxytryptamine receptor 1B; assay: Intrinsic activity at human 5HT1B receptor expressed in CHO cells by [S35]GTPgammaS binding assay relative to serotonin; type: functional, cell-based
[5] = molecular target: T1, 5-hydroxytryptamine receptor 1D; assay: Displacement of [3H]5HT from human 5HT1D receptor expressed in CHO cells; type: cell-based
[6] = molecular target: Sodium-dependent serotonin transporter (Homo sapiens, UniProt P31645); assay: Displacement of [3H]citalopram from human SerT expressed pig LLCPK cells; type: cell-based
[7] = molecular target: T4, 5-hydroxytryptamine receptor 1A (Homo sapiens) (UniProt P08908); assay: Intrinsic activity at human 5HT1A receptor expressed in CHO cells by [S35]GTPgammaS binding assay relative to serotonin; type: functional, cell-based
T4 sequence (whole entry): T3 sequence (P08908 whole entry)

[8] = Oral bioavailability in rat at 1 mg/kg; type: ADME, organism-based; conditions: in vivo
[9] = Volume of distribution in rat; type: ADME, organism-based; conditions: in vivo, read-out: Vdss
[10] = tested on: Liver microsomes; assay: Metabolic stability in human liver microsomes assessed as intrinsic clearance; type: ADME, Microsome
[11] = Blood Clearance in rat at 0.5 mg/kg, iv and 1 mg/kg, po; type: ADME, organism-based; conditions: whole blood
[12] = tested on: Liver microsomes; assay: Metabolic stability in rat liver microsomes assessed as intrinsic clearance; type: ADME, Microsome
[13] = Half life in rat; type: ADME, organism-based; conditions: in vivo
[14] = Ratio of drug level in brain to blood in rat; type: ADME, organism-based; conditions: brain / whole blood

T2 sequence (P28222 whole entry): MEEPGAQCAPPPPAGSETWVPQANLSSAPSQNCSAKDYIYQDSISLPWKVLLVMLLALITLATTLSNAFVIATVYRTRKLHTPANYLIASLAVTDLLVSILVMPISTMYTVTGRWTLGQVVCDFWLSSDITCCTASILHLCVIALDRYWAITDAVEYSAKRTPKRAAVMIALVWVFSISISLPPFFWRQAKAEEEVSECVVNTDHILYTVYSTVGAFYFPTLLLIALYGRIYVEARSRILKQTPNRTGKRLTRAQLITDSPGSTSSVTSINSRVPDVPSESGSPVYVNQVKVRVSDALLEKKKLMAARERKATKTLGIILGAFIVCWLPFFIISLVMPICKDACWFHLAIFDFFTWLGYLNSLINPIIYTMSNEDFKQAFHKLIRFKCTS
Sodium-dependent serotonin transporter, sequence (P31645 whole entry): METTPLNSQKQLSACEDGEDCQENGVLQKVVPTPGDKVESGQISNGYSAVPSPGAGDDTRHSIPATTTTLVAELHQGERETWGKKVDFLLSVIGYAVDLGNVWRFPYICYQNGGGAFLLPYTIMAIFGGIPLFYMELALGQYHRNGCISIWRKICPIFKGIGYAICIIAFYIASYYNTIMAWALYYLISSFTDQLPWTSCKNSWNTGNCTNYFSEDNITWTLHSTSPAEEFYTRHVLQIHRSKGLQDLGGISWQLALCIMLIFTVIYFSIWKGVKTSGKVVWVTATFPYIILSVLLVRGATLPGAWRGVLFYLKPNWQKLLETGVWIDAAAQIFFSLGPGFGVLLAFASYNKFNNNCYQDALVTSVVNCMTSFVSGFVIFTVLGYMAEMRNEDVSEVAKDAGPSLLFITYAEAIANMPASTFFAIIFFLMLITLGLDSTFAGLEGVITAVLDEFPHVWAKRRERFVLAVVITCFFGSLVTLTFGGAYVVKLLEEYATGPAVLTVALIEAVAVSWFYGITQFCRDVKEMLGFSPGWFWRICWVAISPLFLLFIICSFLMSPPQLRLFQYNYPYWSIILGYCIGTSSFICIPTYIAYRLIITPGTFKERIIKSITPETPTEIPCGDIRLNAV
T1 sequence (P28221 whole entry): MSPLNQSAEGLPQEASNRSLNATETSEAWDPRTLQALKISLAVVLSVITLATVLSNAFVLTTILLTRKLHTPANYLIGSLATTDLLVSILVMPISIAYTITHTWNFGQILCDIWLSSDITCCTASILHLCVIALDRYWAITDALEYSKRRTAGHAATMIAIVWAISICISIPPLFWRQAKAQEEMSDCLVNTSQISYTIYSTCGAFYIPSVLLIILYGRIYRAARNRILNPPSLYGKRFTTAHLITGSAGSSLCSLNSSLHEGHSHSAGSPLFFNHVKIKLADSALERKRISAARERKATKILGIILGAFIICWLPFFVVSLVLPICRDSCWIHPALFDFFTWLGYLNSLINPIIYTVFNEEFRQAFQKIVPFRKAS

SMILES	Intrinsic activity [1]	Ki [2]	Ki [3]	Intrinsic activity [4]	Ki [5]	Ki [6]	Intrinsic activity [7]	bioavailability [8]	Vd [9]	CL [10]	clearance [11]	CL [12]	half-life [13]	Kp [14]
O=C1COc2ccc(CCN3CCN(c4nccc5ccccc45)CC3)cc2N1	0.4	0.794 nM	100 nM	0.5	0.251 nM	0.794 nM	1	–	–	–	–	–	–	–
CCN1C(=O)COc2ccc(CCN3CCN(c4cccc5nc(C)ccc45)CC3)cc21	0	0.794 nM	0.501 nM	0	0.398 nM	79.4 nM	0	–	–	–	–	–	–	–
Cc1ccc2c(N3CCN(CCc4ccc5c(c4)N(C)C(=O)CO5)CC3)cccc2n1	–	–	–	0.2	–	–	0.3	59%	2.7 L/kg	1.1 mL/min/g	8 mL/min/kg	0.8 mL/min/g	4.4 h	–
Cc1ccc2c(N3C[C@H]4C[C@@H]3CN4CCc3ccc4c(c3)NC(=O)CO4)cccc2n1	0	0.794 nM	126 nM	0.2	25.1 nM	3.98 nM	0.8	–	–	–	–	–	–	–
Cc1ccc2c(N3CCN(CCc4ccc5c(c4)NC(=O)CO5)CC3)cc(F)cc2n1	0	2.51 nM	2.51 nM	0	0.2 nM	0.794 nM	0	–	–	–	–	–	–	–
Cc1ccc2c(N3CCN(CCc4cc5c(cc4F)OCC(=O)N5)CC3)cccc2n1	0	1.58 nM	0.251 nM	0.1	0.251 nM	0.794 nM	0.2	–	–	–	–	–	–	–
O=C1COc2ccc(CCN3CCN(c4cccc5cccnc45)CC3)cc2N1	0.7	31.6 nM	1.58 nM	0.7	0.251 nM	10 nM	0.8	–	–	–	–	–	–	–
Cc1ccc2c(N3CCN(CCc4ccc5c(c4)NC(=O)CO5)CC3)cccc2n1	–	–	–	0.1	–	–	0.2	68%	2 L/kg	< 0.5 mL/min/g	5 mL/min/kg	1.3 mL/min/g	5.1 h	–
Cc1ccc2c(N3CCN(CCc4cc(F)c5c(c4)NC(=O)CO5)CC3)cccc2n1	0	1 nM	1.26 nM	0.3	0.2 nM	1.26 nM	0	–	–	–	–	–	–	–
Cc1ccc2c(N3CCN(CCc4ccc5c(c4)NC(=O)CO5)CC3C)cccc2n1 (centres undefined)	0	2 nM	0.794 nM	0.1	0.316 nM	10 nM	0.2	–	–	–	–	–	–	–
Cc1ccc2c(N3CCN(CCc4ccc5c(c4)NC(=O)CO5)CC3)ccc(F)c2n1	0	126 nM	0.251 nM	0	0.316 nM	3.98 nM	0.2	–	–	–	–	–	–	–
Cc1ccc2c(N3CCN(CCc4ccc5c(c4)NC(=O)CO5)[C@H](C)C3)cccc2n1	0	7.94 nM	1.58 nM	0	0.501 nM	0.794 nM	0	–	–	–	–	–	–	–
Cc1ccc2c(N3CCN(CCc4ccc5c(c4)NC(=O)CO5)[C@@H](C)C3)cccc2n1	0	1.26 nM	3.16 nM	0	1.58 nM	0.398 nM	0	–	–	–	–	–	–	–

Continued, values first:

Intrinsic activity [1]	Ki [2]	Ki [3]	Intrinsic activity [4]	Ki [5]	Ki [6]	Intrinsic activity [7]	bioavailability [8]	Vd [9]	CL [10]	clearance [11]	CL [12]	half-life [13]	Kp [14]	SMILES
0.3	0.631 nM	0.126 nM	0.3	0.398 nM	15.8 nM	1.2	–	–	–	–	–	–	–	Cc1cc(N2CCN(CCc3ccc4c(c3)NC(=O)CO4)CC2)c2ccc(C)nc2c1
0.4	0.398 nM	3.16 nM	0.4	0.2 nM	6.31 nM	0.3	–	–	–	–	–	–	–	Cc1cc2c(N3CCN(CCc4ccc5c(c4)NC(=O)CO5)CC3)cccc2[nH]1
0	0.501 nM	0.316 nM	0	0.158 nM	0.794 nM	0.4	–	–	–	–	–	–	–	Cc1ccc2c(N3CCN(CCc4ccc5c(c4)NC(=O)CO5)CC3)cc(Cl)cc2n1
0	0.631 nM	0.398 nM	0.2	0.316 nM	2 nM	0.6	67%	1.1 L/kg	–	4 mL/min/kg	–	2.8 h	0.3	Cc1ncc2c(N3CCN(CCc4ccc5c(c4)NC(=O)CO5)CC3)cccc2n1
0	0.398 nM	0.251 nM	0.2	0.398 nM	5.01 nM	0.3	–	–	–	–	–	–	–	Cc1ccc2c(N3CCN(CCc4ccc5c(c4F)NC(=O)CO5)CC3)cccc2n1
0.5	0.631 nM	0.501 nM	0.6	0.158 nM	2.51 nM	1.2	–	–	–	–	–	–	–	CC1(C)Cc2cccc(N3CCN(CCc4ccc5c(c4)NC(=O)CO5)CC3)c2O1
0	0.316 nM	0.631 nM	0.2	12.6 nM	0.158 nM	0.4	–	–	–	–	–	–	–	O=C1COc2ccc(CCN3CCN(c4cccc5nc(-c6ccccc6)ccc45)CC3)cc2N1
0	0.501 nM	3.98 nM	0.3	0.2 nM	1.58 nM	0.7	–	–	–	–	–	–	–	Cc1ccc2c(N3CCN(CCc4ccc5c(c4)NC(=O)CO5)CC3)ccc(Cl)c2n1
